Patent US20040175382A1, “Methods of using and compositions comprising selective cytokine inhibitory drugs for the treatment and management of disorders of the central nervous system” (priority 2003, published 2004)

Columns and labels:
[1] = cardiovascular and respiratory function in anesthetized dogs; type: in vivo; details: anesthetized Beagle dogs; 400, 800 and 1,200 mg/kg/day ascending doses, infusion through the jugular vein
Method: The effects of 3-(3,4-dimethoxy-phenyl)-3-(1-oxo-1,3-dihydro-isoindol-2-yl)-propionamide on cardiovascular and respiratory function are investigated in anesthetized dogs. Two groups of Beagle dogs (2/sex/group) are used. One group receives three doses of vehicle only and the other receives three ascending doses of 3-(3,4-dimethoxy-phenyl)-3-(1-oxo-1,3-dihydro-isoindol-2-yl)-propionamide (400, 800, and 1,200 mg/kg/day). In all cases, doses of 3-(3,4-dimethoxy-phenyl)-3-(1-oxo-1,3-dihydro-isoindol-2-yl)-propionamide or vehicle are successively administered via infusion through the jugular vein separated by intervals of at least 30 minutes.

[2] = system: TNF-α production following LPS-stimulation of human PBMC and human whole blood; test: in vitro pharmacological activity profile, comparison with thalidomide (cytokine production); type: cell-based
Method: The pharmacological properties of 3-(3,4-dimethoxy-phenyl)-3-(1-oxo-1,3-dihydro-isoindol-2-yl)-propionamide, including activity comparisons with thalidomide, are characterized in in vitro studies. Studies examine the effects of 3-(3,4-dimethoxy-phenyl)-3-(1-oxo-1,3-dihydro-isoindol-2-yl)-propionamide on the production of various cytokines. In addition, a safety pharmacology study of 3-(3,4-dimethoxy-phenyl)-3-(1-oxo-1,3-dihydro-isoindol-2-yl)-propionamide is conducted in dogs and the effects of the compound on ECG parameters are examined further as part of three repeat-dose toxicity studies in primates.
Inhibition of TNF-α production following LPS-stimulation of human PBMC and human whole blood by 3-(3,4-dimethoxy-phenyl)-3-(1-oxo-1,3-dihydro-isoindol-2-yl)-propionamide is investigated in vitro (Muller et al., Bioorg. Med. Chem. Lett. 9:1625-1630, 1999). The IC50's of 3-(3,4-dimethoxy-phenyl)-3-(1-oxo-1,3-dihydro-isoindol-2-yl)-propionamide for inhibiting production of TNF-α following LPS-stimulation of PBMC and human whole blood is measured.
The pharmacological effects of 3-(3,4-dimethoxy-phenyl)-3-(1-oxo-1,3-dihydro-isoindol-2-yl)-propionamide derive from its action as an inhibitor of cellular response to receptor-initiated trophic signals (e.g., IGF-1, VEGF, cyclooxygenase-2), and other activities.

[3] = system: CBP+/− mutant mice; details: cited from earlier work
[4] = system: rat mesencephalonic neurons; details: in the presence of the adenylate cyclase activator forskolin; cited from earlier work
[5] = system: patients with PD; details: cited from earlier work

With `COc1ccc(C(CC(N)=O)N2Cc3ccccc3C2=O)cc1OC` (stereo not drawn) [3-(3,4-dimethoxy-phenyl)-3-(1-oxo-1,3-dihydro-isoindol-2-yl)-propionamide] the “cardiovascular and respiratory changes compared to the vehicle control group” value [1] was “minimal at all doses”, the “effect on generation of inflammatory cytokines” value ([2]; in vitro) was “suppresses the generation of inflammatory cytokines” and the “potency relative to thalidomide (times more potent)” value ([2]; in vitro studies, pharmacological activity profile similar to thalidomide) was 5 to 50 times.

For `COc1ccc([C@H]2CNC(=O)[C@H](Cc3cccc(C)c3)C2)cc1OC1CCCC1` [HT0712], the long-term memory defects [3] is given as “abolished the long-term memory defects”.

For `CCCCOc1cc(CC2CNC(=O)N2)ccc1OC` (stereo not drawn) [Ro-20 1724], the uptake of dopamine [4] is listed as “stimulate uptake of dopamine”.

For `COc1ccc(C2CNC(=O)C2)cc1OC1CCCC1` (stereo not drawn) [Rolipram], the dose-limiting side effect ([5]; Phase II trials of PD) is listed as “nausea”, the “deterioration of the therapeutic action of dopamine against Lisuride” value ([5]; double-blind trial versus placebo, patients with PD already under treatment, 3 mg per day) is listed as “no significant deterioration” and the long-term memory defects [3] is listed as “abolished the long-term memory defects”.

For `COCCOc1cc(OCCOC)cc(-c2nc(C)cc3cc(OC)c(OC)cc23)c1` [SDZ-MNS 949], the uptake of dopamine [4] is listed as “stimulate uptake of dopamine”.
